Reference: patent US7833532B2, “Immunogenic lipopeptides comprising T-helper and cytotoxic T lymphocyte (CTL) epitopes” (The Council of The Queensland Institute of Medical Research, priority 2002, dated 2010)

Tested on: D1 cells
Assay: Maturation of D1 dendritic cells (surface MHC class II, flow cytometry)
Format: cell-based, BALB/c mouse
Details: overnight incubation, 0.45 nmoles/mL; […]

ALNNRFQIKGVELKSKTYQRTRALV [[Th]-Lys-[CTL]]
maturation of D1 cells (percentage expressing high levels of surface MHC class II): ≤ 26%
